19 compounds from patent US8232288B2, “Substituted benzimidazoles, benzothiazoles and benzoxazoles” (Gruenenthal GmbH, priority 2009, dated 2012) can be followed below.

Structures are written as SMILES.

Experiment [1] concerns the target T1, human B1R receptor (hB1R) (Homo sapiens, UniProt P46663).
T1 construct: expressed in transfected cells; host or cells: CHO K1 cells
T1 sequence (P46663 1-353): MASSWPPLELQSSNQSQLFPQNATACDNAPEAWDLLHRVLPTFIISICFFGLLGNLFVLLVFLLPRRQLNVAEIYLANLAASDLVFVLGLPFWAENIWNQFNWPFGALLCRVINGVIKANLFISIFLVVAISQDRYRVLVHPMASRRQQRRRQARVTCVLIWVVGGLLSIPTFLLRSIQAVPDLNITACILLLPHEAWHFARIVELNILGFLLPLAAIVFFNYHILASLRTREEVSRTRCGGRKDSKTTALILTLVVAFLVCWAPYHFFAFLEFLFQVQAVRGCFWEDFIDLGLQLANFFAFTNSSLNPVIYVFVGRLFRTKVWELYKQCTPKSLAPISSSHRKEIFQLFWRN
Nature of the experiment: Functional investigation on the bradykinin receptor 1 (B1R), FLIPR Ca2+ assay, hB1R cells. The experiment is classed as cell-based. The procedure, abridged:
(§1)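 Stably transfected CHO K1 cells expressing human or rat B1R were loaded with Fluo-4, and Ca2+ fluorescence was read on a FLIPR. Compound (10 μM) was added first to measure activation. After 10–20 min, agonist at EC80 was added (Lys-Des-Arg9-bradykinin for hB1R, Des-Arg9-bradykinin for rB1R) to give % inhibition. IC50 values came from concentration series.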

Experiment [2] concerns the target T2, B1R receptor of the rat (rB1R) (Rattus norvegicus, UniProt P97583).
T2 construct: expressed in transfected cells; host or cells: CHO K1 cells
T2 sequence (P97583 1-337): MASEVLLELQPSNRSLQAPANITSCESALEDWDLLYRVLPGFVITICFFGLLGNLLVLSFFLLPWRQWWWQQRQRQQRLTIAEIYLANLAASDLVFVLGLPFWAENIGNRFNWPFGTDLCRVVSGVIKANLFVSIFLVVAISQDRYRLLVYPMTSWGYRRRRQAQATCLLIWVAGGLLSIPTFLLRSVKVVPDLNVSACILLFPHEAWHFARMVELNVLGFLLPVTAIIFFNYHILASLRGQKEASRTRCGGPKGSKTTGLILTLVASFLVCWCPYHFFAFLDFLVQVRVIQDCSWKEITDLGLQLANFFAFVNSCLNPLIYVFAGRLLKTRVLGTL
Nature of the experiment: Functional investigation on the bradykinin receptor 1 (B1R), FLIPR Ca2+ assay, rB1R cells. The experiment is classed as cell-based. In short, it runs like this: as §1

The term inhibition denotes the drop in the measured response relative to a control, in per cent. For the compound `Cc1cccc(Cl)c1S(=O)(=O)N(C)Cc1nc2cccc(C(=O)N3CCC4(CC3)CCN(c3ccncc3)CC4)c2[nH]1` [I_CC-11, 2-chloro-N,6-dimethyl-N-[[7-(3-pyridin-4-yl-3,9-diazaspiro[5.5]undecane-9-carbonyl)-1H-benzoimidazol-2-yl]-methyl]-benzenesulfonic acid amide], the inhibition at 10 µM in experiment [1] was found to be 98%; in experiment [2], 91%.

Consider `COc1cc(C)c(S(=O)(=O)N(C)CCc2nc3c(C(=O)N4CCC5(CC4)CCN(c4ccncc4)CC5)cccc3[nH]2)c(C)c1` [I_02, 4-methoxy-N,2,6-trimethyl-N-[2-[4-(9-pyridin-4-yl-3,9-diazaspiro[5.5]undecane-3-carbonyl)-1H-benzoimidazol-2-yl]-ethyl]-benzenesulfonic acid amide], for which the inhibition at 10 µM in experiment [1] was determined as 97%; in experiment [2], 100%.

Turning to `COc1cc(C)c(S(=O)(=O)N(C)c2nc3ccc(C(=O)N4CCC5(CC4)CCN(c4ccncc4)CC5)cc3n2C)c(C)c1` [I_CC-17, 4-methoxy-N,2,6-trimethyl-N-[1-methyl-6-(3-pyridin-4-yl-3,9-diazaspiro[5.5]undecane-9-carbonyl)-1H-benzoimidazol-2-yl]-benzenesulfonic acid amide], the inhibition at 10 µM worked out at 71% in experiment [1] and 56% in experiment [2].

With `COc1cc(C)c(S(=O)(=O)N(C)C(C)c2nc3cccc(C(=O)N4CCC5(CCN(Cc6cncn6C)CC5)CC4)c3[nH]2)c(C)c1` (centres unmarked) [I_CC-36, 4-Methoxy-N,2,6-trimethyl-N-[1-[7-[9-[(3-methyl-3H-imidazol-4-yl)-methyl]-3,9-diazaspiro[5.5]undecane-3-carbonyl]-1H-benzoimidazol-2-yl]-ethyl]-benzenesulfonic acid amide], the inhibition at 10 µM in experiment [1] turned out to be 82%; in experiment [2] it was 100%.

Turning to `COc1cc(C)c(S(=O)(=O)N(C)C(C)c2nc3cccc(C(=O)N4CCC5(CCN(Cc6ccc(F)cc6F)CC5)CC4)c3[nH]2)c(C)c1` (centres unmarked) [I_CC-32, N-[1-[7-[9-[(2,4-Difluoro-phenyl)-methyl]-3,9-diazaspiro[5.5]undecane-3-carbonyl]-1H-benzoimidazol-2-yl]-ethyl]-4-methoxy-N,2,6-trimethyl-benzenesulfonic acid amide], the figures for the inhibition at 10 µM in experiment [1] and in experiment [2] were 71% and 99%, respectively.

With `COc1cc(C)c(S(=O)(=O)N(C)C(C)c2nc3cccc(C(=O)N4CCC5(CC4)CCN(S(=O)(=O)c4ccc(F)cc4F)CC5)c3[nH]2)c(C)c1` (centres unmarked) [I_CC-57, N-[1-[7-[9-[(2,4-Difluoro-phenyl)sulfonyl]-3,9-diazaspiro[5.5]undecane-3-carbonyl]-1H-benzoimidazol-2-yl]-ethyl]-4-methoxy-N,2,6-trimethyl-benzenesulfonic acid amide], the results for the inhibition at 10 µM in experiment [1] and in experiment [2] were 22% and 103%, respectively.

In the case of `Cc1ccc(Cl)c(S(=O)(=O)N(C)Cc2nc3cccc(C(=O)N4CCC5(CC4)CCN(c4ccncc4)CC5)c3[nH]2)c1Cl` [I_17, 2,6-dichloro-N,3-dimethyl-N-[[7-(9-pyridin-4-yl-3,9-diazaspiro[5.5]undecane-3-carbonyl)-1H-benzoimidazol-2-yl]-methyl]-benzenesulfonic acid amide], the inhibition at 10 µM in experiment [1] is 95%; in experiment [2], 24%.

For the compound `COc1cc(C)c(S(=O)(=O)N(C)C(C)c2nc3cccc(C(=O)N4CCC5(CCN(C(=O)c6cnccn6)CC5)CC4)c3[nH]2)c(C)c1` (centres unmarked) [I_CC-47, 4-Methoxy-N,2,6-trimethyl-N-[1-[7-[9-(pyrazine-2-carbonyl)-3,9-diazaspiro[5.5]undecane-3-carbonyl]-1H-benzoimidazol-2-yl]-ethyl]-benzenesulfonic acid amide], the inhibition at 10 µM in experiment [1] came to 58%; in experiment [2], 90%.

As for `Cc1cc(S(=O)(=O)N(C)Cc2nc3cccc(C(=O)N4CCC5(CC4)CCN(c4ccncc4)CC5)c3[nH]2)c(C)cc1Cl` [I_CC-01, 4-chloro-N,2,5-trimethyl-N-[[7-(3-pyridin-4-yl-3,9-diazaspiro[5.5]undecane-9-carbonyl)-1H-benzoimidazol-2-yl]-methyl]-benzenesulfonic acid amide], the inhibition at 10 µM amounted to 96% in experiment [1] and 92% in experiment [2].

For the compound `COc1cc(C)c(S(=O)(=O)N(C)C(C)c2nc3cccc(C(=O)N4CCC5(CCN(Cc6ccncc6)CC5)CC4)c3[nH]2)c(C)c1` (centres unmarked) [I_CC-27, 4-Methoxy-N,2,6-trimethyl-N-[1-[7-[9-(pyridin-4-yl-methyl)-3,9-diazaspiro[5.5]undecane-3-carbonyl]-1H-benzoimidazol-2-yl]-ethyl]-benzenesulfonic acid amide], the inhibition at 10 µM in experiment [1] worked out at 90%; in experiment [2], 92%.

Consider `COc1cc(C)c(S(=O)(=O)N(C)C(C)c2nc3cccc(C(=O)N4CCC5(CCN(C(=O)c6ccc(F)cc6Cl)CC5)CC4)c3[nH]2)c(C)c1` (centres unmarked) [I_CC-52, N-[1-[7-[9-(2-Chloro-4-fluoro-benzoyl)-3,9-diazaspiro[5.5]undecane-3-carbonyl]-1H-benzoimidazol-2-yl]-ethyl]-4-methoxy-N,2,6-trimethyl-benzenesulfonic acid amide], for which the inhibition at 10 µM in experiment [1] came out at 77%; in experiment [2], 93%.

Consider `COc1cc(C)c(S(=O)(=O)N(C)Cc2nc3cccc(C(=O)N4CCC5(CCC(N6CC(F)(F)C6)CC5)CC4)c3[nH]2)c(C)c1` [I_05, N-[[7-[9-(3,3-difluoro-azetidin-1-yl)-3-azaspiro[5.5]undecane-3-carbonyl]-1H-benzoimidazol-2-yl]-methyl]-4-methoxy-N,2,6-trimethyl-benzenesulfonic acid amide], for which the inhibition at 10 µM in experiment [1] was 55%; in experiment [2] it was 72%.

With `COc1cc(C)c(S(=O)(=O)N(C)C(C)c2nc3cccc(C(=O)N4CCC5(CCN(Cc6ccc(C#N)cc6)CC5)CC4)c3[nH]2)c(C)c1` (centres unmarked) [I_CC-43, N-[1-[7-[9-[(4-Cyano-phenyl)-methyl]-3,9-diazaspiro[5.5]undecane-3-carbonyl]-1H-benzoimidazol-2-yl]-ethyl]-4-methoxy-N,2,6-trimethyl-benzenesulfonic acid amide], the inhibition at 10 µM in experiment [1] is 85%; in experiment [2], 98%.

For the compound `Cc1cccc(Cl)c1S(=O)(=O)N(C)Cc1nc2cccc(C(=O)N3CCC4(CC3)CCN(c3ccncc3)C4)c2[nH]1` [I_CC-07, 2-chloro-N,6-dimethyl-N-[[7-(3-pyridin-4-yl-3,8-diazaspiro[4.5]decane-8-carbonyl)-1H-benzoimidazol-2-yl]-methyl]-benzenesulfonic acid amide], the inhibition at 10 µM stood at 100% in experiment [1] and 97% in experiment [2].

With `COc1cc(C)c(S(=O)(=O)N(C)C(C)c2nc3cccc(C(=O)N4CCC5(CC4)CCN(C(=O)c4cc(C)nn4C(C)(C)C)CC5)c3[nH]2)c(C)c1` (centres unmarked) [I_CC-55, N-[1-[7-[9-(2-tert-Butyl-5-methyl-2H-pyrazole-3-carbonyl)-3,9-diazaspiro[5.5]undecane-3-carbonyl]-1H-benzoimidazol-2-yl]-ethyl]-4-methoxy-N,2,6-trimethyl-benzenesulfonic acid amide], the inhibition at 10 µM in experiment [1] was 71%; in experiment [2] it was 89%.

`CN(Cc1nc2cccc(C(=O)N3CCC4(CC3)CCN(c3ccncc3)CC4)c2[nH]1)S(=O)(=O)c1cccc2ccccc12` [I_07, N-methyl-N-[[7-(9-pyridin-4-yl-3,9-diazaspiro[5.5]undecane-3-carbonyl)-1H-benzoimidazol-2-yl]-methyl]-naphthalene-1-sulfonic acid amide]: the inhibition at 10 µM in experiment [1] came to 98%; in experiment [2], 96%.

`COc1cc(C)c(S(=O)(=O)N(C)Cc2nc3c(C(=O)N4CCC5(CC4)CCN(c4ccncc4)CC5)cccc3s2)c(C)c1` [I_CC-22, 4-methoxy-N,2,6-trimethyl-N-[[4-(3-pyridin-4-yl-3,9-diazaspiro[5.5]undecane-9-carbonyl)-benzothiazol-2-yl]-methyl]-benzenesulfonic acid amide]: the inhibition at 10 µM came out at 95% in experiment [1] and 93% in experiment [2].

In the case of `COc1cc(C)c(S(=O)(=O)N(C)C(C)c2nc3cccc(C(=O)N4CCC5(CCN(Cc6c[nH]c(C)n6)CC5)CC4)c3[nH]2)c(C)c1` (centres unmarked) [I_CC-37, 4-Methoxy-N,2,6-trimethyl-N-[1-[7-[9-[(2-methyl-1H-imidazol-4-yl)-methyl]-3,9-diazaspiro[5.5]undecane-3-carbonyl]-1H-benzoimidazol-2-yl]-ethyl]-benzenesulfonic acid amide], the inhibition at 10 µM in experiment [1] is 80%; in experiment [2], 101%.

Consider `COc1cc(C)c(S(=O)(=O)N(C)C(C)c2nc3cccc(C(=O)N4CCC5(CCN(Cc6ccccn6)CC5)CC4)c3[nH]2)c(C)c1` (centres unmarked) [I_CC-26, 4-Methoxy-N,2,6-trimethyl-N-[1-[7-[9-(pyridin-2-yl-methyl)-3,9-diazaspiro[5.5]undecane-3-carbonyl]-1H-benzoimidazol-2-yl]-ethyl]-benzenesulfonic acid amide], for which the inhibition at 10 µM worked out at 91% in experiment [1] and 89% in experiment [2].
